For the assay, the system named is M. tuberculosis H37Rv growth inhibition, 7H9 media. Put plainly: M. tuberculosis growth inhibition, HTS (AID 449762).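 As to all read-outs here: bacterial growth assessed after seven days of incubation.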 The following applies: for IC90: measured here: IC90 growth inhibition.

Records with an inconclusive call do not appear. Bounds are passed on as bounds.

The IC90 is the concentration at which the effect reaches the 90% level. `Cc1ccc2[nH]c3c(c2c1)CN(C(=O)CN1CCN(c2ccccn2)CC1)CC3` returned a concentration for an effect of 90% (IC90) of more than 100 µM.

As usually defined, the IC50 is the point on the concentration scale where inhibition reaches its midpoint. For `N#CC(C#N)=C(N)CSc1cccc[n+]1[O-]`, the concentration for half-maximal inhibition (IC50) is 6.25 µM and the IC90 came to 11 µM.

Regarding `CCc1ccc2oc(-c3ccc(OC)cc3)cc(=Nc3c(C)n(C)n(-c4ccccc4)c3=O)c2c1`, the IC50 was 22.4 µM and the concentration for an effect of 90% (IC90) was 25.1 µM.

In the case of `COC(=O)CSc1nnc(-c2sc3cc(OC)ccc3c2Cl)n1C`, the IC50 is 9.08 µM and the IC90 was more than 100 µM.

Regarding `CCOc1ccc(-c2cc(C(=O)NCCCn3ccnc3)c3cc(Br)ccc3n2)cc1`, the half-maximal inhibitory concentration (IC50) was 24.1 µM and the 90% effect concentration (IC90) worked out at 27.4 µM.

`CC[N+](C)(CC)CCCCOc1ccc2c(c1)C(=O)c1cc(OCCCC[N+](C)(CC)CC)ccc1-2`: the concentration for half-maximal inhibition (IC50) is 0.96 µM and the concentration for an effect of 90% (IC90) came to 1.52 µM.

For the compound `CCOC(=O)c1ccc(N=C2C(=S)N(c3ccc(C(=O)OCC)cc3)C(=N)N2/N=C/c2ccccc2)cc1`, the IC50 was 68.9 µM and the 90% effect concentration (IC90) was more than 100 µM.

In the case of `CCOC(=O)c1ccc(Nc2cc3ccccc3c(=O)[nH]2)cc1`, the half-maximal inhibitory concentration (IC50) was 72.3 µM and the IC90 is more than 100 µM.

As for `COc1ccc(C)cc1Nc1n[n+](-c2ccccc2)c(-c2c(Cl)cccc2Cl)s1`, the half-inhibitory concentration (IC50) was 19.6 µM and the 90% effect concentration (IC90) was 25.9 µM.

For `CCCOc1ccc2c(c1)C(=NN=C(N)N)c1cc(OCCC)ccc1-2`, the half-inhibitory concentration (IC50) was 12.4 µM and the concentration for an effect of 90% (IC90) stood at 13.1 µM.

`O=S(=O)(c1ccc(Cl)cc1)c1snnc1-c1ccccc1`: the IC50 is 6.27 µM and the 90% effect concentration (IC90) worked out at 51.8 µM.

As to `Cc1cc(-c2cc(-c3ccccc3)on2)nc(NC2CCCC2)n1`, the 50% inhibitory concentration (IC50) was 45.8 µM and the IC90 was 53.9 µM.

On to `O=C(OCC(=O)N1CCCCC1)c1cc2ccccc2cc1O`, for which the concentration for half-maximal inhibition (IC50) is 5 µM and the IC90 came to 9.61 µM.

For the compound `CCc1c(C2(O)CCCCC2)[nH]c2ccc(C(F)(F)F)cc12`, the half-maximal inhibitory concentration (IC50) is 28.4 µM and the 90% effect concentration (IC90) was more than 50 µM.

In the case of `Cc1ccc(-c2noc(-c3cc4ccccc4oc3=O)n2)cc1`, the concentration for half-maximal inhibition (IC50) is 6.7 µM and the IC90 is more than 100 µM.

For the compound `CCOC(=O)CNc1ccc(C(=O)OCC)cc1[N+](=O)[O-]`, the IC50 is 8.45 µM and the concentration for an effect of 90% (IC90) is 22.6 µM.

Regarding `CCCn1nc(C(=O)NNC(=O)c2ccc(C)c(C)c2)c2ccccc2c1=O`, the IC50 is 11.2 µM and the IC90 turned out to be 15.9 µM.

On to `CC(C)(C)C1CCc2sc(-c3nnc(CCl)o3)cc2C1` (stereo not drawn), for which the half-inhibitory concentration (IC50) is less than 0.2 µM and the concentration for an effect of 90% (IC90) is 5.54 µM.

`Cc1cc2c(N=O)c(NO)ccc2[nH]1`: the IC50 was 10.3 µM and the IC90 came to 15 µM.

Turning to `CCN1/C(=C/C=C/c2oc3ccc(-c4ccccc4)cc3[n+]2CC)Oc2ccc(-c3ccccc3)cc21`, the IC50 was 3.74 µM and the IC90 was 4.74 µM.

With `c1ccc(-c2nc(N3CCCC3)nc3ccccc23)cc1`, the IC50 is 37.5 µM and the IC90 is 51.8 µM.

In the case of `Nc1ccc(N=Nc2ccccc2)c2cccnc12`, the IC50 is 10.9 µM and the IC90 came to 49.5 µM.

For `COc1ccc(/C=N/OCC(=O)OCC(=O)N(C)c2ccccc2)cc1`, the IC50 was 8.22 µM and the IC90 is 39.1 µM.

For the compound `O=C1CC(=C(c2ccccc2)c2ccccc2)C(=O)N1CCCCN1CCN(c2ccccc2)CC1`, the IC50 was 22.8 µM and the concentration for an effect of 90% (IC90) was found to be 26 µM.

For `CCCCCCCCn1c2c(c(=N)c3c1CCC3)CCCC2`, the IC50 was 19 µM and the IC90 was 26.4 µM.

Regarding `Cn1cnnc1SCc1ccc(C(=O)N=Nc2c(O)n(Cc3ccc(Cl)cc3)c3ccccc23)cc1`, the IC50 is 2.97 µM and the 90% effect concentration (IC90) stood at 3.4 µM.

As for `C#CCOc1ccc2c(c1)c(C(C)=O)c(C)n2Cc1ccccc1`, the IC50 was 68.4 µM and the concentration for an effect of 90% (IC90) was more than 100 µM.

For the compound `CN(C(=O)COC(=O)c1sc2ccccc2c1Cl)C1CCCCC1`, the IC50 is 4.8 µM and the concentration for an effect of 90% (IC90) was found to be 15 µM.

On to `Cc1ccc2nc(/C(C#N)=C/c3cn[nH]c3-c3ccc(F)cc3)[nH]c2c1`, for which the half-maximal inhibitory concentration (IC50) is 20.9 µM and the concentration for an effect of 90% (IC90) was more than 100 µM.

On to `O=[N+]([O-])c1cn(-c2nc(-c3ccco3)cc(C(F)(F)F)n2)cn1`, for which the IC50 was 1.77 µM and the IC90 is 22 µM.

Consider `NC(N)=Nc1nc(-c2ccccc2)c2ccccc2n1`, for which the concentration for half-maximal inhibition (IC50) was 68 µM and the 90% effect concentration (IC90) was 87.9 µM.

For the compound `O=C(N[C@H]1CCC(=O)N(CCSc2ccc(Br)cc2)CC1)OCc1ccccc1`, the IC50 is 23.3 µM and the IC90 was 28.6 µM.

As for `CCCCn1c(NCc2ccc3c(c2)OCO3)nc2ccccc21`, the half-maximal inhibitory concentration (IC50) is 19 µM and the concentration for an effect of 90% (IC90) amounted to 31.1 µM.

On to `CN(C)CCCNC(=O)c1ccc(-c2nc(-c3ccc(Cl)cc3)cs2)cc1`, for which the IC50 is 27.8 µM and the IC90 was found to be 42.3 µM.

In the case of `CC(C)(C)c1nn(-c2ccccc2)c2[nH]c(=O)c(CNCc3ccc4c(c3)OCO4)cc12`, the IC50 was 20.4 µM and the IC90 was 27.3 µM.

For `Cc1ccc(C(C(=O)NCC2CCCO2)N(Cc2ccccc2)C(=O)c2ccc(-c3ccccc3)[nH]2)o1` (stereo not drawn), the 50% inhibitory concentration (IC50) is 23.3 µM and the IC90 was 35.6 µM.

On to `O=C(c1ccccc1)c1ccc(OCCOCCN2CCN(Cc3ccccc3)CC2)cc1`, for which the 50% inhibitory concentration (IC50) was 23.7 µM and the IC90 worked out at 37.5 µM.

Take `COc1ccc(Nc2nc(N3CCCCC3)nc3ccccc23)c(OC)c1`: the IC50 is 19.1 µM and the IC90 amounted to 26.5 µM.

On to `O=C(CSc1ccccn1)Nc1nonc1[N+](=O)[O-]`, for which the IC50 is 1.45 µM and the IC90 was 2.25 µM.

As to `O=C(OCc1ccccc1F)c1cnc(Cl)c(Cl)c1`, the half-inhibitory concentration (IC50) was 13.1 µM and the 90% effect concentration (IC90) worked out at 49.8 µM.

For the compound `CC(C)(C)OC(=O)NNC(=S)NC1CCCCC1`, the IC50 is 21.2 µM and the IC90 worked out at 23.8 µM.

In the case of `O=C1N=C(N2CCC(Cc3ccccc3)CC2)S/C1=C/c1cn[nH]c1-c1ccccc1`, the IC50 was 27.5 µM and the IC90 is more than 100 µM.

For the compound `CC(=O)CCSc1ncnc2sc(-c3ccccc3)cc12`, the 90% effect concentration (IC90) was more than 100 µM.

Regarding `Cc1c(Cl)cccc1NC(=O)CN1CCC(C(O)(c2ccccc2)c2ccccc2)CC1`, the concentration for half-maximal inhibition (IC50) is 36.1 µM and the concentration for an effect of 90% (IC90) was more than 100 µM.

`Cc1cccc(/C=C/c2onc(C)c2[N+](=O)[O-])n1`: the IC50 was 10.9 µM and the IC90 was determined as 19.1 µM.

For the compound `O=C(CCl)c1ccc2c(c1)CCN2C(=O)C1CCCCC1`, the 50% inhibitory concentration (IC50) is 16.7 µM and the 90% effect concentration (IC90) is more than 100 µM.

In the case of `O=C(Nc1nc(-c2cc(Cl)sc2Cl)cs1)c1cccs1`, the IC50 was 29.3 µM and the IC90 was more than 100 µM.

Consider `CCCCOc1ccc(-c2nnn(C(C)C(=O)OCC)n2)cc1` (stereo not drawn), for which the IC50 is 0.75 µM and the IC90 is 5.42 µM.

Take `C=CCn1cccc(/C=C/C(=O)c2ccc(C(C)(C)C)cc2)c1=S`: the IC50 was 27.8 µM and the IC90 was 56.5 µM.

On to `CC(C)n1cnc2c(NCc3ccccc3)cc(Cc3ccc(F)cc3)cc21`, for which the IC50 is 26.9 µM and the IC90 was determined as 36.5 µM.

With `C/C(=N/Nc1cc(-c2ccccc2)nc(-c2ccccc2)n1)c1ccc(O)cc1`, the IC50 is 9.45 µM and the 90% effect concentration (IC90) was found to be 13.8 µM.

Consider `CCOC(=O)CSCC(=O)N1CCC(Cc2ccccc2)CC1`, for which the IC50 is 5.35 µM and the IC90 is 19.6 µM.

Take `COc1ccc(C(=O)OCC(=O)c2ccc(Br)s2)c(OC)c1`: the half-maximal inhibitory concentration (IC50) was 26 µM and the IC90 was more than 100 µM.

As for `Cc1cc(/C=C\c2ccc3cc(N(C)C)ccc3[n+]2C)c(C)n1-c1ccccc1`, the IC50 was 1.86 µM and the 90% effect concentration (IC90) is 3.19 µM.

On to `COc1cc(/C=C(\C#N)c2nc3c(s2)CC(C)CC3)ccc1O` (stereo not drawn), for which the IC50 was 31.5 µM and the IC90 stood at 63.5 µM.

Take `COc1ccc(Nc2nc(N)c([N+](=O)[O-])c(NC3CCCCC3)n2)cc1`: the IC50 was 9.76 µM and the IC90 was determined as 18.8 µM.

With `CC(C)(C)C1CCc2c(sc3nc(SCC(N)=O)nc(N)c23)C1` (stereo not drawn), the concentration for half-maximal inhibition (IC50) was 15.4 µM and the IC90 worked out at 31.8 µM.

As to `Cc1ccc(NC(=O)CSc2nc3ccccc3c(=O)n2CCCN2CCCCC2)cc1Cl`, the IC50 is 39 µM and the concentration for an effect of 90% (IC90) came out at 55.5 µM.

Turning to `CCOc1ccc(-c2cc(CCCC(=O)NCCC(C)C)no2)cc1`, the IC50 is 6.53 µM and the IC90 amounted to 14.3 µM.

As for `Nc1nc2ccccc2n1CCOc1ccccc1Cl`, the IC50 is 12.1 µM and the IC90 was 13.3 µM.

Consider `COc1ccccc1C1CCN(Cc2ccc3ccccc3c2)CC1`, for which the IC50 was 15.7 µM and the IC90 stood at 21.8 µM.

Take `Cc1cccc(NS(=O)(=O)c2ccc(C(=O)N3CCN(c4ccccc4O)CC3)cc2)c1C`: the concentration for half-maximal inhibition (IC50) is 75.3 µM and the 90% effect concentration (IC90) was more than 100 µM.

On to `Cc1cc(/C=C2\SC(=Nc3ccc(F)cc3)NC2=O)c(C)n1-c1ccc(S(N)(=O)=O)cc1`, for which the IC50 is 22.4 µM and the 90% effect concentration (IC90) stood at 25.5 µM.

On to `CCN1C(=NCCc2ccc(Br)cc2)N[C@@H](c2ccccc2)[C@H](C(=O)OC)[C@H]1C`, for which the half-inhibitory concentration (IC50) is 16.7 µM and the 90% effect concentration (IC90) was 22.1 µM.

Take `CC1Cc2ccccc2N1C(=S)NC(=O)c1ccc(Cl)cc1Cl` (stereo not drawn): the IC50 is 7.13 µM and the IC90 is more than 100 µM.

`Cc1nn(Cc2ccccc2)c(C)c1C(=O)OCC(=O)c1cc(C)n(CC(F)(F)F)c1C`: the half-maximal inhibitory concentration (IC50) is 11.8 µM and the 90% effect concentration (IC90) came to 35.4 µM.

On to `CSC1=NC(C)(C)C=C(/C=C/c2ccc(Cl)cc2)N1`, for which the half-inhibitory concentration (IC50) is 21.5 µM and the IC90 turned out to be 44.5 µM.

As to `O=c1c(C=NCCN2CCNCC2)c(O)n(C2CCCCC2)c(=O)n1C1CCCCC1`, the IC50 is 21 µM and the IC90 was 28.5 µM.

Take `O=C(/C=C/Sc1ncn[nH]1)c1ccc(Cl)cc1`: the IC50 is 16.8 µM and the IC90 turned out to be 43.8 µM.

For the compound `COC(=O)/C(=C1/Oc2cc(C)oc(=O)c2S1)C(F)(F)F`, the half-inhibitory concentration (IC50) was 6.24 µM and the IC90 was more than 100 µM.

On to `O=C(CCSc1ccccn1)c1ccccc1`, for which the IC50 is 10.2 µM and the IC90 worked out at 19.1 µM.

Regarding `C/C(O)=C\c1nc2ccccc2oc1=O`, the IC50 was 0.77 µM and the IC90 was found to be 0.86 µM.

Regarding `CC(=O)N1C(Nc2ccc(Cl)cc2)CCN1c1ccccc1` (stereo not drawn), the IC90 is more than 100 µM.

The values above are taken from PubChem BioAssay AID449762 (Southern Research Specialized Biocontainment Screening …, 2010).
